Assays:
[1] = tested on: N. fowleri ATCC® 30,808™ cysts; experiment: microbe, parasite or virus in culture; assay type: cell-based; conditions: Naegleria fowleri, ATCC30, read-out: N. fowleri ATCC 30,808 IC50, cyst stage
[2] = tested on: N. fowleri (ATCC® 30,808™) trophozoites; experiment: Mitochondrial membrane potential depolarization, JC-1; assay type: cell-based, Naegleria fowleri; conditions: IC90, 24 h
[3] = tested on: N. fowleri (ATCC® 30,808™) trophozoites; assay type: cell-based, Naegleria fowleri; conditions: trophozoites treated with IC90 for 24 h
[4] = tested on: N. fowleri ATCC® 30,808™ trophozoites; experiment: In vitro activity against trophozoites, alamarBlue, 48 h; assay type: cell-based, Naegleria fowleri; conditions: for S.I. ATCC 30,808 (selectivity index CC50/IC50): CC50 J774A.1 / IC50 ATCC 30,808 trophozoites; for IC50 / IC90: Naegleria fowleri; for IC50: ATCC30, 48 h, read-out: N. fowleri ATCC 30,808 IC50, trophozoite stage; for IC90: ATCC30, read-out: N. fowleri ATCC 30,808 IC90
[5] = tested on: N. fowleri ATCC® 30,215™ trophozoites; experiment: as above; assay type: cell-based; conditions: Naegleria fowleri, ATCC30, 48 h, read-out: N. fowleri ATCC 30,215 IC50
[6] = tested on: N. fowleri (ATCC® 30,808™) trophozoites; experiment: Plasma membrane permeability, SYTOX Green; assay type: cell-based, Naegleria fowleri; conditions: IC90, 24 h
[7] = tested on: N. fowleri (ATCC® 30,808™) trophozoites; experiment: Chromatin condensation, Hoechst 33,342/Propidium Iodide double staining; assay type: cell-based, Naegleria fowleri; conditions: IC90, 24 h

Q: What does the source list for `C[C@@H]1[C@H](O)[C@@H](C)/C=C/C=C/C=C/C=C/C=C/C=C/C=C/[C@H](O[C@@H]2O[C@H](C)[C@@H](O)[C@H](N)[C@@H]2O)C[C@@H]2O[C@](O)(C[C@@H](O)C[C@@H](O)[C@H](O)CC[C@@H](O)C[C@@H](O)CC(=O)O[C@H]1C)C[C@H](O)[C@H]2C(=O)O` [AMPHOTERICIN B, amphotericin B]?
A: IC50 [1]: 0.53 ± 0.03 µM; Mitochondrial membrane potential (JC-1 fluorescence) [2]: green fluorescence emission was also shown; Inhibition of ATP synthesis in comparison to the negative control [3]: > 98%; S.I. ATCC 30,808 (selectivity index CC50/IC50) [4]: ≥1650; IC50 [4]: 0.12 ± 0.03 µM; IC90 [4]: 0.35 ± 0.02 µM; IC50 [5]: 160 ± 20 nM; Plasma membrane permeability (SYTOX Green fluorescence) [6]: emitted green fluorescence; Chromatin condensation (Hoechst 33,342 blue fluorescence) [7]: emission of blue fluorescence was observed

Q: What does the source list for `CCCCCCCCCCCCCCCCOP(=O)([O-])OCC[N+](C)(C)C` [MILTEFOSINE, miltefosine]?
A: IC50 [1]: 21.5 ± 2.62 µM; S.I. ATCC 30,808 (selectivity index CC50/IC50) [4]: 3.3

Q: Which results are given for `CCCN1CCC=C(c2cc(-c3ccc(C)cc3)no2)C1` [PD-144418]?
A: IC50 [1]: 10.4 ± 2.3 µM; S.I. ATCC 30,808 (selectivity index CC50/IC50) [4]: 10.35; IC50 [4]: 4.71 ± 0.95 µM; IC90 [4]: 17.4 ± 3.28 µM; IC50 [5]: 6480 ± 2830 nM

Q: How did the IC50 [1] turn out when `CC(C)N1CCN(c2ccc(OCC3COC(Cn4cncn4)(c4ccc(Cl)cc4Cl)O3)cc2)CC1` (stereo not drawn) [TERCONAZOLE, terconazole] was run?
A: 2.46 ± 0.28 µM

Q: What about the “S.I. ATCC 30,808 (selectivity index CC50/IC50)” value [4] of the same molecule?
A: 22.99

Q: And the IC50 [4]?
A: 3.68 ± 0.61 µM

Q: What about the IC90 [4] of the same molecule?
A: 30.9 ± 2.38 µM

Q: What about the IC50 [5] of the same molecule?
A: 810 ± 490 nM
